Where two headings read alike, the source gives them in different places. Each block holds one compound with its values, some of them ahead of it. Bridge positions count the residues as written; N and C are the ends. Square brackets hold non-standard residues; d marks the D form. Peptide text beside a SMILES is read from it. Cit = NC(=O)NCCC[C@H](N)C(=O)O
Columns and labels:
hPADI4 = target: T1, hPADI4 (Homo sapiens, UniProt Q9UM07); assay: COLDER assay, inhibition of PADI4 at 10 mM CaCl2 (substrate BAEE); assay type: biochemical
T1 construct: PADI4 (residues 1–663); Avi-Tag (unbiotinylated); made in house; host or cells: E. coli BL21(DE3) without BirA
Method: PADI4 activity was assessed using the COLDER assay[43] that measures the formation of urea-containing compounds (e.g. citrulline). The reaction was carried out in a 96-well plate with a final volume of 50 µl. His-PADI4 (50 nM) was incubated with different concentrations of peptides (100 µM to 0.3 nM) in the presence of CaCl2 (from 10 mM to 0.001 mM as specified) for 10 min. The reaction was started by the addition of 10 mM N^α-Benzoyl-L-arginine ethyl ester hydrochloride (BAEE, Merck). After 30 min, the reaction was quenched with EDTA (50 mM final concentration). For colour development, 200 µl of COLDER solution, consisting of 1 volume of solution A (80 mM diacetyl monoxime/2,3-butanedione monoxime (Merck) and 2 mM thiosemicarbazide (Acros Organics)) and 3 volumes of solution B (3 M H3PO4, 6 M H2SO4 and 2 mM NH4Fe(SO4)2) were added to each well and the mixture was heated at 95 °C for 15 min. After cooling to RT, absorbance at 540 nm was measured, and citrulline concentration was determined using a standard curve of citrulline standards. All studies were performed within the linear range of PADI4 activity, and data analysis was performed using Prism GraphPad (Dotmatics). Data are presented as the average ± standard error of the mean from at least two independent replicates.

Bio-hPADI4 wt = target: T2, Bio-hPADI4 wt (Homo sapiens, UniProt Q9UM07); assay: Surface plasmon resonance (SPR), single cycle kinetics, peptide binding to immobilised PADI4
T2 construct: PADI4 (residues 1–663); Avi-Tag (biotinylated by BirA); made in house; host or cells: E. coli BL21-DE3 co-expressing BirA
T2 sequence (Q9UM07 whole entry, the tested form may be a part): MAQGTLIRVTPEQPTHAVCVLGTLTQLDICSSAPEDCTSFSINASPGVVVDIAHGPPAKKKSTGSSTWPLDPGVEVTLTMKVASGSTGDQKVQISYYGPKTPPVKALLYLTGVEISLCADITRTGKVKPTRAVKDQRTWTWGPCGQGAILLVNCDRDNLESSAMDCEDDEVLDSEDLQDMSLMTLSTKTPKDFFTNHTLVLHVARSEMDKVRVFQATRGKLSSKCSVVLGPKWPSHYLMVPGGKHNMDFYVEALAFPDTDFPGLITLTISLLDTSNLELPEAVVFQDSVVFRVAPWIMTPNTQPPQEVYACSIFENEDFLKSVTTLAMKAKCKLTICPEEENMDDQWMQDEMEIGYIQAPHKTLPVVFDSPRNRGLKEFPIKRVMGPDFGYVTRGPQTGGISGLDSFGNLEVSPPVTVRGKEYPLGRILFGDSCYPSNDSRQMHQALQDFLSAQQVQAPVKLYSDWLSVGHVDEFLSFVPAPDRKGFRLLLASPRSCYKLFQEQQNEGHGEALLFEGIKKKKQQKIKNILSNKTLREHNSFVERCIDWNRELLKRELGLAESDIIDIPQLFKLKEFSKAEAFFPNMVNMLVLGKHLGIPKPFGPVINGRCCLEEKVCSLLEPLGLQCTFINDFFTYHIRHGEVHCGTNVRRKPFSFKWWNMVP
Method: Single cycle kinetics analysis by SPR was carried out using a Biacore T200 or S200 and a Biotin CAPture kit, series S (Cytiva). […] 50 mM HEPES (pH 7.5), 150 mM NaCl, 2 mM DTT, 0.05 % Tween-20, 0.1% DMSO and variable CaCl2 (as specified) was used as the running buffer and experiments performed at 25 °C.
Samples were run with 120 s contact time, and variable dissociation time (often 360 s). Data were analysed using the Biacore T200 analysis software; data was fitted to a 1:1 binding model accounting for baseline drift where necessary. Data are presented as the average ± standard deviation of at least two independent replicates.

T1 sequence (Q9UM07 whole entry, the tested form may be a part): as above

Compound: N=C(N)NCCC[C@@H]1NC(=O)[C@@H](Cc2ccc(O)cc2)NC(=O)CSC[C@@H](C(=O)NCC(N)=O)NC(=O)[C@H](Cc2ccc(O)cc2)NC(=O)[C@H](CCCCN)NC(=O)[C@@H]2CCCN2C(=O)[C@H](Cc2c[nH]cn2)NC(=O)[C@H](Cc2c[nH]c3ccccc23)NC(=O)[C@H](Cc2ccc(O)cc2)NC(=O)[C@H](Cc2c[nH]cn2)NC(=O)[C@H](Cc2c[nH]cn2)NC(=O)[C@H](CC(=O)O)NC1=O [PADI4_3.20] ({CH2CO}-[dY]RDHHYWHPKYCG-NH2; thioether N-12)
- IC50 (hPADI4; COLDER inhibition assay, mean of the 3 experiments printed beside it (stdev in a separate column), read-out: IC50): 79.1 nM

- IC50 (hPADI4; average of 3 replicates (Stdev in separate column), COLDER assay, 10 mM CaCl2, substrate BAEE, source data of Figure 2F, read-out: IC50s Average): 83.2 nM
Compound: N=C(N)NCCC[C@@H]1NC(=O)[C@@H](Cc2ccc(O)cc2)NC(=O)CSC[C@@H](C(=O)NCC(N)=O)NC(=O)[C@H](Cc2ccc(O)cc2)NC(=O)[C@H](CCCCN)NC(=O)[C@@H]2CCCN2C(=O)[C@H](Cc2c[nH]cn2)NC(=O)[C@H](CCCNC(N)=O)NC(=O)[C@H](Cc2ccc(O)cc2)NC(=O)[C@H](Cc2c[nH]cn2)NC(=O)[C@H](Cc2c[nH]cn2)NC(=O)[C@H](CC(=O)O)NC1=O [PADI4_3.R7Cit] ({CH2CO}-[dY]RDHHY[Cit]HPKYCG-NH2; thioether N-12)

- Kd (Bio-hPADI4 wt; 0 mM CaCl2, 25 °C, read-out: KD 0 mM CaCl2, bound printed in µM): > 2 µM
- Kd (Bio-hPADI4 wt; 10 mM CaCl2, PADI4 active site blocked with Cl-amidine, 25 °C, read-out: KD 10 mM CaCl2 + Cl-amidine, bound given in µM): > 2 µM
- Kd (Bio-hPADI4 wt; 10 mM CaCl2 in running buffer, 25 °C, read-out: KD 10 mM CaCl2, bound printed in µM): > 2 µM
Compound: CC[C@H](C)[C@@H]1NC(=O)[C@H](CC(C)C)NC(=O)[C@H](Cc2c[nH]c3ccccc23)NC(=O)[C@@H]2CCCN2C(=O)[C@H]([C@@H](C)O)NC(=O)[C@H](C)NC(=O)[C@@H](Cc2ccc(O)cc2)NC(=O)CSC[C@@H](C(=O)NCC(N)=O)NC(=O)[C@H](CC(C)C)NC(=O)[C@H](C(C)C)NC(=O)[C@H](C(C)C)NC1=O [PADI4_5] ({CH2CO}-[dY]ATPWLIVVLCG-NH2; thioether N-11)

- Kd (Bio-hPADI4 wt; Fig. 5D, mean ± SEM of three independent repeats, read-out: KD (µM) of PADI4_11 analogues): 0.5 ± 0.3 µM
Compound: CC(C)C[C@H](NC(=O)[C@H](CCC(N)=O)NC(=O)[C@H](CC(C)C)NC(=O)[C@@H](NC(=O)[C@H](C)NC(=O)[C@H](CCCNC(=N)N)NC(=O)[C@H](Cc1ccc(O)cc1)NC(=O)[C@H](CCCNC(=N)N)NC(=O)[C@@H]1CSCC(=O)N[C@@H](Cc2ccc(O)cc2)C(=O)N[C@@H](CCC(=O)O)C(=O)N[C@@H](CO)C(=O)N1)C(C)C)C(N)=O [Q8A] ({CH2CO}-YESCRYRAVLQL-NH2; thioether N-4)

Reference: publication PMC11555231 (Nature Communications, 2024)
